Patent US20210213010A1, “TLR7/8 AGONISTS AND LIPOSOME COMPOSITIONS” (Torque Therapeutics, Inc., priority 2018, published 2021)
“And” between values parts separate entries of the source, which are not always exact repeats. Equal values may be shown once. “Also recorded” adds a separate entry of the source.

Legend:
[1] = test system: RAW-Blue cells; assay: NF-κB induction in RAW-Blue reporter cells (RAW 264.7 macrophages, SEAP); assay type: cell-based; details: for EC50: RAW-Blue, sigmoidal 4PL fitting, 24 h; for Potency in the RAW-Blue cell assay: compared with R848
Excerpt: This example describes the general procedure used to assess the compounds' potency to induce NF-κB expression in RAW 264.7 macrophages cells that stably express secreted embryonic alkaline phosphatase (SEAP) upon induction of NF-κB. RAW-Blue™ reporter cells are commonly used for quantifying TLR7/8 agonist potencies in reporter cell assays. Conversely, we used RAW-Blue™ cells to evaluate the potencies of the synthesized derivatives, as previously reported^1. ^1 Ryu et al, J. Am. Chem. Soc. (2014), 136, 10823-10825
RAW 264.7 assays were carried out using RAW-Blue™ cells and QUANTI-Blue™ detection solution (Invivogen, Toulouse, France, at. #raw-sp and rep-qbs respectively). The assays carried out according to the protocol from Invivogen. RAW 264.7 macrophages were cultured in DMEM high glucose (4.5 g/L) supplemented with 10% (v/v) FBS, 1% (v/v) P/S, and Normocin™ (100 μg/ml). On the day of the study, the cells were seeded in a 96-well plate (ThermoFisher Scientific, Roskilde, Denmark) with 20 μL TLR7/8 agonist solutions per well at varying concentrations by adding 180 μL cell suspension, made by suspending cells to 0.55×10^6 cells per mL in the prepared cell medium added Zeocin™ (200 μg/ml), leading to a final concentration of 100×10^3 cells per well in triplicates. Cells were incubated with the TLR7/8 agonists, diluted from 10 mM DMSO stocks in PBS, at 37° C. with 5% CO2 for 24 h for SEAP production. 50 μL SEAP containing cell supernatant from each well was added 150 μL QUANTI-Blue™ detection solution and was incubated at 37° C. for 3-6 h. The resulting response was quantified spectrophotometrically at 640 nm and was normalized to the signal from a blank sample (DMSO dilution) run in parallel.
Half maximal effective concentration (EC50) values were determined from sigmoidal 4PL fittings from the resulting dose-response curves in GraphPad Prism.

[2] = Remote loading efficiency of small molecules into liposomes (PD-10 size exclusion, HPLC); assay type: physicochemical; details: for Remote loading efficiency 1 h (%) / Remote loading efficiency 3 h (%): mean (SD), n = 2
Method in brief: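 A lyophilized small-molecule powder (modified TLR agonist) was combined with liposome formulation at the desired drug/lipid ratio and stirred at elevated temperature. At 1 h and 3 h, 100 μL of mixture plus 900 μL buffer (25 mM HEPES, 10 vol % sucrose, pH 7.4) went onto a PD-10 size exclusion column. Ten 1 mL fractions were collected, and HPLC quantified compound in the liposome fractions as a percentage of the amount applied.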

[3] = Cryo-TEM of remote loaded liposomes (intraliposomal precipitation); assay type: physicochemical; details: formulation F3, drug to lipid ratio 0.1
Method: CryoTEM samples of 3 μL of liposome solution was placed on a lacy carbon 300 mesh copper TEM grid, blotted and plunge frozen in liquid ethane using a FEI Vitrobot Mark IV. Samples were imaged using a FEI Tecnai G2 20 TWIN transmission electron microscope operated at 200 keV in low dose mode with a FEI High-Sensitive (HS) 4 k×4 k Eagle camera.

[4] = molecular target: T1, mTLR7 (Mus musculus, UniProt P58681); assay: NF-κB induction in HEK-Blue mTLR7 reporter cells; assay type: cell-based
T1 construct: host or cells: HEK-Blue (HEK293-derived) reporter cells
T1 sequence (P58681 27-1050): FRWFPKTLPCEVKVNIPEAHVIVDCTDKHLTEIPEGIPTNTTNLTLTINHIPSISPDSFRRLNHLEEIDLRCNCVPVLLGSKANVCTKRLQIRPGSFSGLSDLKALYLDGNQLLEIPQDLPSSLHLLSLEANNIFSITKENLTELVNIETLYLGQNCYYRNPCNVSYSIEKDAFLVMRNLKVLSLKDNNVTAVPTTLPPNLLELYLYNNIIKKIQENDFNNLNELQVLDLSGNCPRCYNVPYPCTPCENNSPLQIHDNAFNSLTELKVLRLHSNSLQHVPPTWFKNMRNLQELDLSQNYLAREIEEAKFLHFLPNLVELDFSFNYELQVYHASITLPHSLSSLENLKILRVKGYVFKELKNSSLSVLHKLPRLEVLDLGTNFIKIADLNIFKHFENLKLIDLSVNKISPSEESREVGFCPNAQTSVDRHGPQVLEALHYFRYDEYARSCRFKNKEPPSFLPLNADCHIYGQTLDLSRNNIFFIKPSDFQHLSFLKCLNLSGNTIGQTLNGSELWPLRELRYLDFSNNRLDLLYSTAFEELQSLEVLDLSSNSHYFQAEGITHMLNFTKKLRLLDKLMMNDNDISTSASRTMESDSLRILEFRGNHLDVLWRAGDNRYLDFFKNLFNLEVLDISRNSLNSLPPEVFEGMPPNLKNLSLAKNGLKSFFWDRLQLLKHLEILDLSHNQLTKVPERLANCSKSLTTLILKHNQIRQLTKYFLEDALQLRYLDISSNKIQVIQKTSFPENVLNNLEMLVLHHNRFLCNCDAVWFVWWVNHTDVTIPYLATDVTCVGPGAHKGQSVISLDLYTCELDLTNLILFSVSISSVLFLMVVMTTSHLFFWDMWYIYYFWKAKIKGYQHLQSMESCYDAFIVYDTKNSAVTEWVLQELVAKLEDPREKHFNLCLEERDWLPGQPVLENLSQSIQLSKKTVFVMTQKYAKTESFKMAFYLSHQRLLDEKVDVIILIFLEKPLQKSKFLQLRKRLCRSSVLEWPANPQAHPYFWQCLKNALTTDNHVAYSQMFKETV
Excerpt: This example describes the general procedure used to assess the compounds' potency to induce NF-κB expression in human embryonic kidney (HEK) cells. The transcription factor NF-κB is expressed upon stimulation of TLR7/8 and is commonly used for quantifying TLR7/8 agonist potencies in reporter cell assays. Conversely, we used HEK-Blue mTLR-7 cells to evaluate the potencies of the synthesized derivatives, as previously reported (Shukla et al, J. Med. Chem. (2010), 53, 4450-4465).
HEK-Blue TLR7 assays were carried out using HEK-Blue™ mTLR7 cells (Invivogen, Toulouse, France, Cat. #hkb-mtlr7). The assays were carried out according to the protocol from Invivogen. TLR expressing cells were cultured in DMEM high glucose (4.5 g/L) supplemented with 10% (v/v) fetal bovine serum (FBS) and 1% (v/v) penicillin-streptomycin (P/S) to 50 U/ml penicillin and […] streptomycin. On the day of the study, the cells were seeded in a 96-well plate (ThermoFisher Scientific, Roskilde, Denmark) with 20 μL imidazoquinoline TLR7/8 agonist solutions per well at varying concentrations by adding 180 μL cell suspension, made by suspending cells to 0.22×10^6 cells per mL in HEK-Blue™ Detection medium (Invivogen, Cat. #hb-det2) added Blasticidin (10 μg/ml) and Zeocin™ (100 μg/ml), leading to a final concentration of 40×10^3 cells per well in triplicates. Cells were incubated with the imidazoquinoline TLR7/8 agonists, formulated in liposomes or dissolved in PBS, at 37° C. with 5% CO2 for 16 h. The response was quantified spectrophotometrically at 655 nm and was normalized to the signal from a blank sample (DMSO dilution) run in parallel.

[5] = formulation F3, drug/lipid ratio 0.10, 1 h
[6] = formulation F3, drug/lipid ratio 0.10, 3 h
[7] = formulation F3, drug/lipid ratio 0.25, 1 h
[8] = formulation F3, drug/lipid ratio 0.25, 3 h

## CCCCc1nc2c(N)nc3ccccc3c2n1Cc1ccc(CN)cc1 [MK130, 1-(4-(aminomethyl)benzyl)-2-butyl-1H-imidazo[4,5-c]quinolin-4-amine]
[1]
  EC50: 30 nM
  Potency in the RAW-Blue cell assay: the most potent compounds
[2]; [5]
  Remote loading efficiency 1 h (%): 93.8 (5.8) %
[2]; [6]
  Remote loading efficiency 3 h (%): 96.7 (1.3) %
[2]; [7]
  Remote loading efficiency 1 h (%): 45.9 (1.9) %
[2]; [8]
  Remote loading efficiency 3 h (%): 48.9 (2.1) %
[2]; formulation F3, drug/lipid ratio 0.50, 1 h
  Remote loading efficiency 1 h (%): 19.7 (0.4) %
[2]; formulation F3, drug/lipid ratio 0.50, 3 h
  Remote loading efficiency 3 h (%): 20% and 19.5 (1.1) %
[3]
  Intraliposomal precipitation (Cryo-TEM): slight precipitation
[4]; liposomal, formulation F3
  TLR7 agonist activity (NF-κB induction): potencies much higher than R848

## CCCCc1nc2c(N)nc3ccccc3c2n1Cc1ccc(CNC(=O)[C@@H](N)Cc2ccccc2)cc1 [MK138, (S)-2-amino-N-(4-((4-amino-2-butyl-1H-imidazo[4,5-c]quinolin-1-yl)methyl)benzyl)-3-phenylpropanamide]
[1]
  EC50: 40 nM
  Potency in the RAW-Blue cell assay: greater potencies than R848
[2]; [5]
  Remote loading efficiency 1 h (%): 82.5 (1.2) % and 82.6 (1.2) %
[2]; [6]
  Remote loading efficiency 3 h (%): 86% and 86.2 (0.2) % and 86.2 (0.1) %
[2]; formulation F3, drug/lipid ratio 0.1, time not specified (within 3 h)
  Loading efficiency: ≤ 90%
[2]; [7]
  Remote loading efficiency 1 h (%): 5% and 5.1 (0.1) %
[2]; [8]
  Remote loading efficiency 3 h (%): 0.5 (0.1) %
[2]; formulation F4 (250 mM ammonium sulfate), drug/lipid ratio 0.10, 1 h
  Remote loading efficiency 1 h (%): 96.5 (3.3) %
[2]; formulation F4 (250 mM ammonium sulfate), drug/lipid ratio 0.10, 3 h
  Remote loading efficiency 3 h (%): 100% and 100.0 (0.1) %
[2]; formulation F4 (250 mM ammonium sulfate), drug/lipid ratio 0.25, 1 h
  Remote loading efficiency 1 h (%): 93% and 93.0 (5.7) %
[2]; formulation F4 (250 mM ammonium sulfate), drug/lipid ratio 0.25, 3 h
  Remote loading efficiency 3 h (%): 96.5 (0.7) %
[3]
  Intraliposomal precipitation (Cryo-TEM): precipitated to form rod-like crystals
[4]; free compounds, 16 h
  TLR7 agonist activity (NF-κB induction): a higher response than both MK130 and R848 at 1 μM; also recorded: only little activity was observed at concentrations <0.32 μM
[4]; liposomal, formulation F3
  TLR7 agonist activity (NF-κB induction): potencies much higher than R848
